The values that follow come from patent US20260042769A1, “TRIARYL AGONISTS OF ALPHA-2 ADRENERGIC RECEPTORS” (ALCEPTOR THERAPEUTICS, INC., priority 2023, published 2026).

SMILES strings stand for the structures.

For this experiment, the target named is T1, human ADRA2B receptor (Homo sapiens, UniProt P18089).
T1 construct: expressed in transfected cells
T1 sequence (P18089 1-450): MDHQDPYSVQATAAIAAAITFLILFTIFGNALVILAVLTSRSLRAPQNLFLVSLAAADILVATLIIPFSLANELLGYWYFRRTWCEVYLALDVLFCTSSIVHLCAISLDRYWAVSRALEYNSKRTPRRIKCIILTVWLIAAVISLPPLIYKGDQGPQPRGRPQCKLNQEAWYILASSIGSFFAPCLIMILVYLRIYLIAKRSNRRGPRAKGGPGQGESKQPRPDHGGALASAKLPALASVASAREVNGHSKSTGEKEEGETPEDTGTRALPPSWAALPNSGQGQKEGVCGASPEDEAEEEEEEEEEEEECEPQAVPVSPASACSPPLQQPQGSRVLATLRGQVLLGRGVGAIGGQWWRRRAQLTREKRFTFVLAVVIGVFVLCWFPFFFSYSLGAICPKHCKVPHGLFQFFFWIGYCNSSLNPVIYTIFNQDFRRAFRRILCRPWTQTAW
Briefly: GTPγS agonist assay, ADRA2B receptor. The class given is biochemical. Conditions: read-out: GTPase - Human Alpha2B EC50. The method, then: GTP ? S Agonist Assays (ADRA2A, ADRA2B, and ADRA2C Receptors)
Membranes were prepared for GTP ? S binding assays from CHO-K1 cells stably expressing human ADRA2A, ADRA2B, or ADRA2C receptor. Briefly, cells were grown in 5-layer cell culture flasks. Cells were washed with 50 mL of PBS and then dissociated with 0.05% trypsin. Dissociated cells were then collected by centrifugation at 650×g for 8 min at 4° C. Pellets were washed again in PBS by centrifugation and resuspended in 30 mL of 20 mM HEPES, 10 mM EDTA, pH 7.4. After sitting on ice for 30 min, membranes were collected by centrifugation at 50000×g for 15 min at 4° C., resuspended in 30 mL of 20 mM HEPES, 0.1 mM EDTA, pH 7.4 and collected again by centrifugation. Pellets were then washed twice by centrifugation in 30 mL of 20 mM HEPES, pH 7.4, and stored at −80° C. until the day of the assay. On the day of the assay, pellets were thawed on ice and resuspended in 1 mL of 20 mM HEPES, pH 7.4, 10 mM MgCl2, 100 mM NaCl using dounce homogenization. Membrane protein concentration was determined by BCA protein assay (Promega, Madison, WI) according to Promega guidelines.
On the day of the assay, serial dilutions of test compounds were brought up in assay buffer (20 mM HEPES, 10 mM MgCl2, 200 mM NaCl) at 10× final assay concentration. 50 μL/well of membrane homogenates (containing 5 μg of membrane protein for ADRA2A, ADRA2B, or 7.5 μg for ADRA2C) were prepared in assay buffer supplemented with GDP at 2× final assay concentration (5 μM GDP) and dispensed into 96 well polypropylene, U-bottom Greiner plates. Then, 10 μL of compounds were added to assay plates and incubated for 10 min at room temperature. […] The binding reaction was incubated for 1 h at 37° C. Membranes in assay reactions were then transferred to GF/C filter plates (UniFilter, Perkin Elmer) and washed three times using a FilterMate Harvester (Perkin Elmer) with cold assay buffer containing no GDP. Filter plates were then dried at 40° C. overnight followed by the addition of 30 μL/well of Beta Plate Scintillation liquid. Plates were top and bottom sealed before being read on TopCount scintillation counter (Perkin Elmer, Waltham, MA).

Turning to `Cc1cccc([C@@H](Cc2ccccn2)c2cnc[nH]2)c1Cl` [Compound 48, 2-[(2R)-2-(2-chloro-3-methylphenyl)-2-(1H-imidazol-4-yl)ethyl]pyridine], the EC50 is 10 to 50 nM.

Regarding `COc1c(C)cccc1C(Cc1ccnc(C)n1)c1c[nH]cn1` (stereo not shown) [Compound 148, 4-[2-(4-imidazolyl)-2-(2-methoxy-3-tolyl)ethyl]-2-methylpyrimidine], the EC50 fell in the range of 50 to 500 nM.

Consider `COc1cccc(C(Cc2cccc(OC)n2)c2cnc[nH]2)c1` (stereo not shown) [Compound 25, 2-[2-(1H-imidazol-4-yl)-2-(3-methoxyphenyl)ethyl]-6-methoxypyridine], for which the EC50 lay in the range of 50 to 500 nM.

As to `Cc1cccc(C(Cc2cccnn2)c2c[nH]cn2)c1` (stereo not shown) [Compound 228, 3-[2-(4-imidazolyl)-2-(m-tolyl)ethyl]pyridazine], the EC50 is > 500 nM.

As for `COc1nccc(CC(c2c[nH]cn2)c2cccc(OC)c2C)n1` (stereo not shown) [Compound 178, 4-[2-(4-imidazolyl)-2-(3-methoxy-2-tolyl)ethyl]-2-methoxypyrimidine], the concentration for a half-maximal effect (EC50) is 10 to 50 nM.

For `Cc1cccc([C@@H](Cc2ccc(=O)[nH]n2)c2cnc[nH]2)c1C` [Compound 77, 6-[(2R)-2-(2,3-dimethylphenyl)-2-(1H-imidazol-4-yl)ethyl]-2,3-dihydropyridazin-3-one], the half-maximal effective concentration (EC50) is < 10 nM.

For `Cc1cnc(C[C@H](c2cnc[nH]2)c2cccc(C)c2C)nc1` [Compound 74, 2-[(2S)-2-(2,3-dimethylphenyl)-2-(1H-imidazol-4-yl)ethyl]-5-methyl-pyrimidine], the EC50 is > 500 nM.

Take `CCOc1ccc(C(Cc2cccnn2)c2c[nH]cn2)cc1C(F)(F)F` (stereo not shown) [Compound 226, 3-(2-[4-ethoxy-3-(trifluoromethyl)phenyl]-2-(4-imidazolyl)ethyl] pyridazine]: the EC50 is > 500 nM.

In the case of `Cn1ncc2cc(C(Cc3cccnn3)c3c[nH]cn3)ccc21` (stereo not shown) [Compound 230, 5-[1-(4-imidazolyl)-2-(3-pyridazinyl)ethyl]-1-methyl-1H-indazole], the EC50 was > 500 nM.

On to `c1cncc(CC(c2cnc[nH]2)c2cccc3c2CCO3)c1` (stereo not shown) [Compound 57, 3-[2-(2,3-dihydro-1-benzofuran-4-yl)-2-(1H-imidazol-4-yl)ethyl] pyridine], for which the concentration giving a half-maximal response (EC50) was > 500 nM.

`COc1cccc(C[C@@H](c2cccc(Cl)c2)c2cnc[nH]2)n1` [Compound 21, 2-[(2S)-2-(3-chlorophenyl)-2-(1H-imidazol-4-yl)ethyl]-6-methoxypyridine]: the EC50 lay within 10 to 50 nM.

For the molecule `Cc1cncc(CC(c2cnc[nH]2)c2cccc(C)c2C)n1` (stereo not shown) [Compound 88, 2-[2-(2,3-dimethylphenyl)-2-(1H-imidazol-4-yl)ethyl]-6-methylpyrazine], the EC50 was 10 to 50 nM.

For the molecule `Cc1cccc([C@@H](Cc2cccnc2)c2cnc[nH]2)c1Cl` [Compound 61, 3-[(2R)-2-(2-chloro-3-methylphenyl)-2-(1H-imidazol-4-yl)ethyl]pyridine], the 50% effective concentration (EC50) was in the range of 50 to 500 nM.

As to `Cc1cccc([C@H](Cc2ccnc(C(F)(F)F)n2)c2cnc[nH]2)c1C` [Compound 72, 4-[(2S)-2-(2,3-dimethylphenyl)-2-(1H-imidazol-4-yl)ethyl]-2-(trifluoromethyl) pyrimidine], the concentration giving a half-maximal response (EC50) was < 10 nM.

`Cc1cccc(C(Cc2ccncc2)c2cnc[nH]2)c1C` (stereo not shown) [Compound 97, 4-[2-(2,3-dimethylphenyl)-2-(1H-imidazol-5-yl)ethyl] pyridine]: the EC50 is < 10 nM.

Regarding `Cc1nccc(CC(c2c[nH]cn2)c2cccc3ncoc23)n1` (stereo not shown) [Compound 338, 7-[1-(4-imidazolyl)-2-(2-methyl-4-pyrimidinyl)ethyl]-1,3-benzoxazole], the EC50 is > 500 nM.

`COc1nccc(CC(c2c[nH]cn2)c2cccc(Cl)c2OC)n1` (stereo not shown) [Compound 198, 4-[2-(3-chloro-2-methoxyphenyl)-2-(4-imidazolyl)ethyl]-2-methoxypyrimidine]: the EC50 was 10 to 50 nM.

With `COc1nccc(CC(c2c[nH]cn2)c2cccc3c2ccn3C)n1` (stereo not shown) [Compound 193, 4-[2-(4-imidazolyl)-2-(1-methyl-4-indolyl)ethyl]-2-methoxypyrimidine], the concentration giving a half-maximal response (EC50) was < 10 nM.

For the molecule `COc1cccc(C[C@@H](c2cccc(C)c2)c2cnc[nH]2)n1` [Compound 23, 2-[(2S)-2-(1H-imidazol-4-yl)-2-(3-methylphenyl)ethyl]-6-methoxypyridine], the EC50 was < 10 nM.

Regarding `c1cnnc(C[C@@H](c2c[nH]cn2)c2cccc3c2OCC3)c1` (single isomer, unassigned) [Compound 362], the EC50 lay within 10 to 50 nM.

As to `Cc1cccc([C@H](Cc2ccc(=O)[nH]n2)c2cnc[nH]2)c1C` [Compound 76, 6-[(2S)-2-(2,3-dimethylphenyl)-2-(1H-imidazol-4-yl)ethyl]-2,3-dihydropyridazin-3-one], the EC50 is > 500 nM.

On to `c1ccc(C[C@H](c2cnc[nH]2)c2cccc3c2CCO3)nc1` [Compound 41, 2-[(2S)-2-(2,3-dihydro-1-benzofuran-4-yl)-2-(1H-imidazol-4-yl)ethyl]pyridine], for which the EC50 is < 10 nM.

For the molecule `FC(F)Oc1ccccc1C(Cc1ccccn1)c1c[nH]cn1` (stereo not shown) [Compound 107, 4-[1-(o-difluoro-methoxyphenyl) 2-(2-pyridyl)ethyl] imidazole], the EC50 is > 500 nM.

As for `Cc1csc(CC(c2c[nH]cn2)c2cccc(C)c2C)n1` (stereo not shown) [Compound 132, 2-[2-(4-imidazolyl)-2-(2,3-xylyl)ethyl]-4-methyl-1,3-thiazole], the EC50 was < 10 nM.

Regarding `COc1cccc(C[C@H](c2c[nH]cn2)c2cccc3c2OCC3)n1` [Compound 16, 2-[(2S)-2-(2,3-dihydro-1-benzofuran-7-yl)-2-(1H-imidazol-4-yl)ethyl]-6-methoxypyridine], the EC50 is < 10 nM.

For the molecule `Cc1nc(C)c(C[C@@H](c2c[nH]cn2)c2cccc(C)c2C)s1` [Compound 123, 5-[(R)-2-(4-imidazolyl)-2-(2,3-xylyl)ethyl]-2,4-dimethyl-1,3-thiazole], the EC50 is < 10 nM.

Take `FC(F)(F)c1ccc(Cl)c(C(Cc2cccnn2)c2c[nH]cn2)c1` (stereo not shown) [Compound 361, 3-{2-[2-chloro-5-(trifluoromethyl)phenyl]-2-(4-imidazolyl)ethyl}pyridazine]: the EC50 is > 500 nM.

`COc1cccc(C[C@H](c2cnc[nH]2)c2cccc3c2COC3)n1` [Compound 11, 2-[(2S)-2-(1,3-dihydro-2-benzofuran-4-yl)-2-(1H-imidazol-4-yl)ethyl]-6-methoxypyridine]: the EC50 was < 10 nM.

For the molecule `Cc1cccc([C@@H](Cc2ccn(C)n2)c2c[nH]cn2)c1C` [Compound 105, 3-[(R)-2-(4-imidazolyl)-2-(2,3-xylyl)ethyl]-1-methylpyrazole], the EC50 is > 500 nM.

In the case of `FC(F)(F)Oc1cccc([C@H](Cc2ccccn2)c2cnc[nH]2)c1` [Compound 35, 2-[(2S)-2-(1H-imidazol-4-yl)-2-[3-(trifluoromethoxy)phenyl]ethyl] pyridine], the EC50 was > 500 nM.

Consider `Fc1c(Cl)cccc1C(Cc1cccnn1)c1c[nH]cn1` (stereo not shown) [Compound 219, 3-[2-(3-chloro-2-fluorophenyl)-2-(4-imidazolyl)ethyl] pyridazine], for which the EC50 was > 500 nM.

In the case of `COc1c(C)cccc1[C@H](Cc1ccccn1)c1cnc[nH]1` [Compound 33, 2-[(2S)-2-(1H-imidazol-4-yl)-2-(2-methoxy-3-methylphenyl)ethyl]pyridine], the EC50 is > 500 nM.

In the case of `COc1cccc(CC(c2c[nH]cn2)c2cccc3c2OC(F)(F)O3)n1` (stereo not shown) [Compound 125, 2,2-difluoro-4-[1-(4-imidazolyl)-2-(6-methoxy-2-pyridyl)ethyl]-2H-1,3-benzodioxole], the EC50 lay within 10 to 50 nM.

In the case of `Cc1nccc(CC(c2c[nH]cn2)c2cccc3c2ccn3C)n1` (stereo not shown) [Compound 164, 4-[2-(4-imidazolyl)-2 (1-methyl-4-indolyl)ethyl]-2-methylpyrimidine], the half-maximal effective concentration (EC50) is < 10 nM.
